The values below come from US8541464B2, “Treatment of atrial fibrillation” (HUYA Biosciences International LLC, priority 2009, dated 2013).

The subject of one data set is post-MI canine. Particulars: sulcardine and salts; cited from earlier work.
A further data set concerns the target T1, L-Ca (Oryctolagus cuniculus, UniProt P15381).
T1 construct: in isolated atrial cardiomyocytes; endogenous in cells; host or cells: isolated rabbit atrial cardiomyocytes
Description: Ion channel profiling in isolated atrial cardiomyocytes. It is filed as cell-based. Particulars: Rabbit/atria isolated atrial cardiomyocytes.

A further data set relates to rabbit ventricular wedge. Particulars: sulcardine and salts; cited from earlier work.
Data set [1] has as its system Fast Na. Put plainly: Ion channel profiling in isolated atrial cardiomyocytes. Format: cell-based. Particulars: Rabbit/atria isolated atrial cardiomyocytes.
A further data set deals with IKach. The description is as above. Format: cell-based. Particulars: Rabbit/atria isolated atrial cardiomyocytes.
For another data set, the target named is T2, IKur (Homo sapiens, UniProt P22460).
T2 construct: in isolated atrial cardiomyocytes; endogenous in cells; host or cells: isolated human atrial cardiomyocytes
T2 sequence (P22460 whole entry): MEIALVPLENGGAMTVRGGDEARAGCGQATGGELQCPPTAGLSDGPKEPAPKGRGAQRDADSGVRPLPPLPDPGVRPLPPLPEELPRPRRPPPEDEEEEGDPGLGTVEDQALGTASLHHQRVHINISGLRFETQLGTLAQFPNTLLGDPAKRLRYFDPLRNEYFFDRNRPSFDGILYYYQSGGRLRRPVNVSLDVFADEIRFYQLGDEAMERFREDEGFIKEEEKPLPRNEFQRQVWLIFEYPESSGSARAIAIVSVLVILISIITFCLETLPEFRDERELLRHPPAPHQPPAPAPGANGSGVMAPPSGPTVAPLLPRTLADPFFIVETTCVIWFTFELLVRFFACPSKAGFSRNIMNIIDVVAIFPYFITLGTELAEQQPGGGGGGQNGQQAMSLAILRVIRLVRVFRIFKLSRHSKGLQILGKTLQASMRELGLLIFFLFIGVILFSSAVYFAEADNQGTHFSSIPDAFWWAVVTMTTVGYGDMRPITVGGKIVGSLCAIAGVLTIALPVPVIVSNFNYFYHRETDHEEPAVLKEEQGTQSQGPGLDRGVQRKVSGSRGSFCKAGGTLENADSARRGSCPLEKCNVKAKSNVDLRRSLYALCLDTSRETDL
The description is as above. Conditions: Human/atria isolated atrial cardiomyocytes. Format: cell-based.

The target of another data set is T3, Slow Na (Homo sapiens, UniProt Q14524).
T3 construct: in isolated atrial cardiomyocytes; endogenous in cells; host or cells: isolated human atrial cardiomyocytes
The data set is described as above. Format: cell-based. Conditions: Human/atria isolated atrial cardiomyocytes.

A further data set relates to post-MI conscious canine. Particulars: sulcardine and salts; cited from earlier work.
In data set [2] the target is T4, IKr (Oryctolagus cuniculus, UniProt Q8WNY2).
T4 construct: in isolated atrial cardiomyocytes; endogenous in cells; host or cells: isolated rabbit atrial cardiomyocytes
T4 sequence (Q8WNY2 whole entry): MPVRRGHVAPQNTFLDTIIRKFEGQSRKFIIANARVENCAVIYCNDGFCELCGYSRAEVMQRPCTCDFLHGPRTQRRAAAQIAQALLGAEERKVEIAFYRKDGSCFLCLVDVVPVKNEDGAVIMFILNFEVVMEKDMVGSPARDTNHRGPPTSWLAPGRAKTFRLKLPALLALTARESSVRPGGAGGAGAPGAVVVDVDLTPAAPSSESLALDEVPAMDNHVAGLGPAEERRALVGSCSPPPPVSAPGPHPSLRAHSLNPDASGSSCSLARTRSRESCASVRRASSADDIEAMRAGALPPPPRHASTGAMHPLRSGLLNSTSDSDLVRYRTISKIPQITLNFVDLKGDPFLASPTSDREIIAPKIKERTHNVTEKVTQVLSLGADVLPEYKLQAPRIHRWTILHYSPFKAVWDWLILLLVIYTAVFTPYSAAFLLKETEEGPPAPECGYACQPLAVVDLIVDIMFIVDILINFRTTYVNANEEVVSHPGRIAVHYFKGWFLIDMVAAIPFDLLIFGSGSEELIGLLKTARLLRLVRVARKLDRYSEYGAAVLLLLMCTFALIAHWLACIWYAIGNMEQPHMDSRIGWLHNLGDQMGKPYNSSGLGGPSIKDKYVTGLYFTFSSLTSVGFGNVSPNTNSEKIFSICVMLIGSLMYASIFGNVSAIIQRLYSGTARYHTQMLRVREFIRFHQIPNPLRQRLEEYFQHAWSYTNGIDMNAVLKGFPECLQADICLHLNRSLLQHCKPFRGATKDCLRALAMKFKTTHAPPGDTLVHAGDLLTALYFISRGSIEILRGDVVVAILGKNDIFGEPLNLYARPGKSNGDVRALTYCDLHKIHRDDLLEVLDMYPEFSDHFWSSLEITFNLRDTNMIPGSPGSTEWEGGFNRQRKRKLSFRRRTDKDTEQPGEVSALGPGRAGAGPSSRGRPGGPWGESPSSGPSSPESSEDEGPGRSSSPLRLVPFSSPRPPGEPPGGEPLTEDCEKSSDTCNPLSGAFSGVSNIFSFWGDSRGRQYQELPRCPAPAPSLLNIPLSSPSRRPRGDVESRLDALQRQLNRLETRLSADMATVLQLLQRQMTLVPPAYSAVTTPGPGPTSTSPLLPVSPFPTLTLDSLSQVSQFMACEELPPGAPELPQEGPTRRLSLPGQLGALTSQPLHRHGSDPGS
Description: Ion channel profiling in isolated atrial cardiomyocytes. Format: cell-based. Particulars: Rabbit/atria isolated atrial cardiomyocytes.

Data set [3] relates to ion channels in human atrial cardiomyocytes. Particulars: sulcardine and its salts, in vitro, reported; cited from earlier work.
The target of data set [4] is T5, Fast Na (Homo sapiens, UniProt Q14524).
T5 construct: in isolated atrial cardiomyocytes; endogenous in cells; host or cells: isolated human atrial cardiomyocytes
Put plainly: Ion channel profiling in isolated atrial cardiomyocytes. Format: cell-based. Conditions: Human/atria isolated atrial cardiomyocytes.

The test system of data set [5] is Ito. Described as above. It is filed as cell-based. Particulars: Rabbit/atria isolated atrial cardiomyocytes.
The target of data set [6] is T6, Ito (Homo sapiens, UniProt Q9UK17).
T6 construct: in isolated atrial cardiomyocytes; endogenous in cells; host or cells: isolated human atrial cardiomyocytes
The description is as above. Format: cell-based. Conditions: Human/atria isolated atrial cardiomyocytes.

In data set [7] the target is T7, IKr (Homo sapiens, UniProt Q12809).
T7 construct: in isolated atrial cardiomyocytes; endogenous in cells; host or cells: isolated human atrial cardiomyocytes
Described as above. Format: cell-based. Conditions: Human/atria isolated atrial cardiomyocytes.

T1 sequence (P15381 whole entry, other chains not shown): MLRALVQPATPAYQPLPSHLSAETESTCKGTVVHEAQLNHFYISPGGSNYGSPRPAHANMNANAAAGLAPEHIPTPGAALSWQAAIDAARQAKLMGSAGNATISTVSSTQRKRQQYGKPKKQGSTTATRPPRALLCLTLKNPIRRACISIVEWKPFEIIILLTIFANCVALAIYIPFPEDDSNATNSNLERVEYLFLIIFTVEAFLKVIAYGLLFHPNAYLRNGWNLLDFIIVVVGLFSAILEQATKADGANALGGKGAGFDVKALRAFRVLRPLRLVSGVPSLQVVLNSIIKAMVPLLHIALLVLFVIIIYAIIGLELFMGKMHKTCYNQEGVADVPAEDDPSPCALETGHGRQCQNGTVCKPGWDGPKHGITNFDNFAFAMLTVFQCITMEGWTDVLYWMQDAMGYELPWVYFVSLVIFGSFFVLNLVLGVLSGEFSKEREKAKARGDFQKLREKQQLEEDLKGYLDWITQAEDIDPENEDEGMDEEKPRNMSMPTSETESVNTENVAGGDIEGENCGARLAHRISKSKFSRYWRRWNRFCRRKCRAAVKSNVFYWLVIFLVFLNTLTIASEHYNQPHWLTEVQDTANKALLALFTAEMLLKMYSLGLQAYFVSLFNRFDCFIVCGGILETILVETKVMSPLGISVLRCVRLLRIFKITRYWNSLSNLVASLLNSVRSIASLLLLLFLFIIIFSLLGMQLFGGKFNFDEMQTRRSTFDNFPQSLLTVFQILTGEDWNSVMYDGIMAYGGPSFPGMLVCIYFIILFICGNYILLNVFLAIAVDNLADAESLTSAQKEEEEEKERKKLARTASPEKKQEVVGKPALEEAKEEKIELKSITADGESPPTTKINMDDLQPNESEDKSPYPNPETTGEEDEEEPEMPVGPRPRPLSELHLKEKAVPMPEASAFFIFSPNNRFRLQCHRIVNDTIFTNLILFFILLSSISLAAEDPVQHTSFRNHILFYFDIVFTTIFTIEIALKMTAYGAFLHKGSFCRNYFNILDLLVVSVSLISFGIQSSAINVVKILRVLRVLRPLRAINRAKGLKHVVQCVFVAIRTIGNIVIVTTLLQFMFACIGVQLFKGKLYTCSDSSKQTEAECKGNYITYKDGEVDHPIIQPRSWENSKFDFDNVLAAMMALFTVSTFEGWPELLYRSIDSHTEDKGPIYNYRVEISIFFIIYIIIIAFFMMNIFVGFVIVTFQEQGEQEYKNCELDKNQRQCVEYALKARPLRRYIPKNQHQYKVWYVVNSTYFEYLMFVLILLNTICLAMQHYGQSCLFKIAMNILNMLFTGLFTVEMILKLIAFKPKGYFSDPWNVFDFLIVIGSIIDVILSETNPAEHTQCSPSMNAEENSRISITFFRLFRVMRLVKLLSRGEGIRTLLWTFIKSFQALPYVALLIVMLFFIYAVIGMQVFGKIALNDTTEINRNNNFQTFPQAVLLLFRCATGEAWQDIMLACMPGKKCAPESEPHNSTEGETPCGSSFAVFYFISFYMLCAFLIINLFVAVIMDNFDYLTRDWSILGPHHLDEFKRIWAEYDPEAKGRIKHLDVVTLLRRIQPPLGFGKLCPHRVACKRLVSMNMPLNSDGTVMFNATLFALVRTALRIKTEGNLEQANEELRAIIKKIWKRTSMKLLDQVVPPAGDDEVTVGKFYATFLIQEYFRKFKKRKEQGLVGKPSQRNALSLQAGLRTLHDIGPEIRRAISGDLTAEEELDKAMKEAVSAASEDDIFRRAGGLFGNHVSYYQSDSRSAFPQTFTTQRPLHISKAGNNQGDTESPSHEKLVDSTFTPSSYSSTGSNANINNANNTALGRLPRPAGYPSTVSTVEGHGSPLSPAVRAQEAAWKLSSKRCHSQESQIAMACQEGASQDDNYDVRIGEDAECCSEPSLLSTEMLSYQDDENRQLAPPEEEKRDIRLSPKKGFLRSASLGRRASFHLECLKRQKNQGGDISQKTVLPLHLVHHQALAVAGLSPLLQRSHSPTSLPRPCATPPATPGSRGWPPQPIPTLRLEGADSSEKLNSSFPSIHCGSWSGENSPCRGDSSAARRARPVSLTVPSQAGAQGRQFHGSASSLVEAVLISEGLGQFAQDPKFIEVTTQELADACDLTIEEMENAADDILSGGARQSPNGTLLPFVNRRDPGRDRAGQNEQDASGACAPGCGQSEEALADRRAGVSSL
T1 sequence (P13806 27-1106 partner, other chains not shown): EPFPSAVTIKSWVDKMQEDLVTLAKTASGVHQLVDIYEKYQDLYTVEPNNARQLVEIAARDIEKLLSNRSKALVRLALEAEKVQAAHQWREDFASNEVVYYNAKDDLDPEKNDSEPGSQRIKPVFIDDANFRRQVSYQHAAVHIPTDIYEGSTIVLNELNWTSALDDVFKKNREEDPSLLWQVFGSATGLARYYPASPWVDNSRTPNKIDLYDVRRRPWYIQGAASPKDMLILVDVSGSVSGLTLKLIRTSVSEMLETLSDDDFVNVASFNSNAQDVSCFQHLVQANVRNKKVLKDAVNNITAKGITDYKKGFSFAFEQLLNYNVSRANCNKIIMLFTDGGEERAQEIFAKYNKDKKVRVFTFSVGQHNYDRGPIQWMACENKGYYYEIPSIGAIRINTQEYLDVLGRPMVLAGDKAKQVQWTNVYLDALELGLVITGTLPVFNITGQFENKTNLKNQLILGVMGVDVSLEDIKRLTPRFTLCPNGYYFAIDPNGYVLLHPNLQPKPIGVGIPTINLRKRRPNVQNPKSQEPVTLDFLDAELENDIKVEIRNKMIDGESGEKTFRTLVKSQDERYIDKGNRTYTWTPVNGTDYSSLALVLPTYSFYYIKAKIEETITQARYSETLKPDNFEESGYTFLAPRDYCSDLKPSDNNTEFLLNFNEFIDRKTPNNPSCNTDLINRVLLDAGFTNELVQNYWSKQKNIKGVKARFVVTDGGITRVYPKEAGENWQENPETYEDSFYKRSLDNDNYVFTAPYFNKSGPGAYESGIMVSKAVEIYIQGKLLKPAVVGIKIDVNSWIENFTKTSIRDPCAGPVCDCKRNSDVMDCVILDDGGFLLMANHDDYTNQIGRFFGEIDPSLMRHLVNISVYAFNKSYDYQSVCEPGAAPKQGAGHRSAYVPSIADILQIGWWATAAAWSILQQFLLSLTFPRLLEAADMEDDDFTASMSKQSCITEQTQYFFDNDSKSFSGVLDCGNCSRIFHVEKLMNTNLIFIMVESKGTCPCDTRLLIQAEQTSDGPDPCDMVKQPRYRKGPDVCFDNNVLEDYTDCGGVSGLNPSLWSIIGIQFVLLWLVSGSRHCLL

By IC50 is commonly meant the concentration that inhibits the measured activity by half. As for “4-methoxy-N-(3,5-bis-(1-pyrrolidinyl)-4-hydroxy benzyl)benzene sulfonamide [sulcardine]”, the defibrillation threshold entry with post-MI canine is on record as “do not increase defibrillation threshold”. The IC50 at L-Ca was 54 µM; with Fast Na [1], 34 µM; in the data set on IKach, 130 µM; at IKur, greater than 190 µM; against Slow Na it was 45 µM; against IKr [2] it was 61 µM. The IC50 in [3] was 26 to 100 µM; against Fast Na [4], 26 µM; in the data set with Ito [5] it was 26 µM; at Ito [6], 100 µM; at IKr [7] it was 40 µM. For the same substance, the pro-arrhythmic activity entry in the data set with rabbit ventricular wedge and in the data set on post-MI conscious canine was “lack significant pro-arrhythmic activity” in each case.
